Measurements as given in article PMC7387483, “In silico identification and functional validation of linear cationic α-helical antimicrobial peptides in the ascidian Ciona intestinalis” (Scientific Reports, 2020).
Where no end group is shown, it is not given here.

What was measured:
bacteria = settings: in vitro development-resistance studies; cited from earlier work
Excerpt: Antimicrobial peptides are crucial and widespread effector molecules of the innate immune system and are a part of the first line of host defense against invading pathogens[1],[2]. To date, thousands of antimicrobial peptides have been identified from bacteria to mammals and have been classified into several groups on basis of the structure and sequence features[3]–[5]. Of these, linear cationic α-helical antimicrobial peptides (LCAMPs), the genes of which encode short amphipathic peptides without cysteine residues, are the most abundant and widespread in organisms. LCAMPs are known for their ...

[1] = tested on: Escherichia coli (NBRC14237); assay type: cell-based; settings: for Antimicrobial activity against Escherichia coli (in words): segments with Na^4vSS less than − 30, Supplementary Fig. S1; for MIC, E. coli (NBRC 14237): NBRC14237
Method: (§1) Antimicrobial activities of the peptides were measured as described previously. Synthetic peptides were added to the microbial suspension in the individual wells of a microplate at final concentrations of 3.125, 6.25, 12.5, and 25 μM. The relative activities (RA) were calculated by the equation RA = ((APC − ANC) − ASA)/(APC − ANC), where APC, ANC, and ASA represent the absorbance of positive control, negative control, and samples, respectively. The bacteria and yeast strains used were Escherichia coli (NBRC14237), Staphylococcus aureus (NBRC12732), Pseudomonas aeruginosa (NBRC12582), and Saccharomyces cerevisiae (NBRC10217), which were purchased from Biological Resource Center, National Institute of Technology and Evaluation (NBRC, Tokyo, Japan). The interaction between Ciona LCAMPs and membrane interface was predicted using AmphipaSeek server (https://npsa-pbil.ibcp.fr/cgi-bin/npsa_automat.pl?page=/NPSA/npsa_amphipaseek.html)[28].

[2] = cited from earlier work
Method: We examined the effects of five novel Ciona LCAMPs in the presence of NaCl on antimicrobial activity against E. coli. Reflective of the habitat of C. intestinalis, salt resistance was found in all peptides at the concentration of 12.5 μM (Fig. 2).

[3] = tested on: Saccharomyces cerevisiae (NBRC10217); assay type: cell-based
Method: as §1

[4] = tested on: Pseudomonas aeruginosa (NBRC12582); assay type: cell-based
Method: as §1

[5] = tested on: Staphylococcus aureus (NBRC12732); assay type: cell-based
Method: as §1

Substance | Antimicrobial activity against Escherichia coli (in words) [1] | MIC, S. cerevisiae (NBRC 10217) [3] | MIC, S. aureus (NBRC 12732) [5] | MIC, E. coli (NBRC 14237) [1] | further results
pexiganan | – | – | – | – | Potential for induction of bacterial resistance (bacteria): low potential for induction of bacterial resistance
RRRRRIAARIGSGVAQTGGELI [KH.C1.365, cationic amphipathic α-helical segment with Na4vSS less than − 30, synthetic peptide] | no or weak antimicrobial activities | – | – | – | –
ALRSAVRTVARVGRAVLPHVAI [Ci-PAP-A, known salt-resistant LCAMP from C. intestinalis hemocyte EST database] | – | – | – | – | NaCl concentration in the presence of which antimicrobial activity is exhibited [2]: 100 mM
KGGKFLNFLKKAAKVGAKVGMAALG [KH.S908.1] | – | 6.25 µM | < 3.125 µM | < 3.125 µM | MIC, P. aeruginosa (NBRC 12582) [4]: 6.25 µM
KLKTWPKNYWRKVWSKKNWRKFVKKFKHW [KH.S921.1] | – | – | < 3.125 µM | < 3.125 µM | MIC, P. aeruginosa (NBRC 12582) [4]: < 3.125 µM
TINKKFRWHGKRKWWLRFVKQ [KH.S1531.4] | – | 6.25 µM | < 3.125 µM | < 3.125 µM | –
WWLSRRRSSLFYWR [KH.C1.640] | – | 12.5 µM | < 3.125 µM | < 3.125 µM | –
WRSLGRTLLRLSHALKPLARRSGW [Ci-MAM-A, known salt-resistant LCAMP from C. intestinalis hemocyte EST database] | – | – | – | – | NaCl concentration in the presence of which antimicrobial activity is exhibited [2]: 450 mM
FRRRRRRRRHWHHHHHYHYHHHRRRRRRRRRW [KH.L63.9, cationic amphipathic α-helical segment with Na4vSS less than − 30, synthetic peptide] | no or weak antimicrobial activities | – | – | – | –
FGRRRRVPGRRRRWWNERAMNEI [KH.S1007.2, cationic amphipathic α-helical segment with Na4vSS less than − 30, synthetic peptide] | no or weak antimicrobial activities | – | – | – | –
SRRRFDFSRRRIYVARRRSLAFAHRRR [KH.C7.94] | – | 6.25 µM | 6.25 µM | 6.25 µM | –
AERLMRKAAKDHWSNKMAKDVIWWEQ [KH.S930.2, cationic amphipathic α-helical segment with Na4vSS less than − 30, synthetic peptide] | no or weak antimicrobial activities | – | – | – | –
